Results taken from the supplement of paper PMC10307832.

Columns and labels:
Assay in all cases: relative viability (nuclei count vs DMSO), 5 days (fraction); higher = more cells survive
Crenolanib + Navitoclax = compound: CC1(COc2ccc3c(c2)ncn3-c2ccc3cccc(N4CCC(N)CC4)c3n2)COC1 [Crenolanib] + CC1(C)CCC(c2ccc(Cl)cc2)=C(CN2CCN(c3ccc(C(=O)NS(=O)(=O)c4ccc(N[C@H](CCN5CCOCC5)CSc5ccccc5)c(S(=O)(=O)C(F)(F)F)c4)cc3)CC2)C1 [Navitoclax] (partner 0.5 µM)
Method in brief: (§1)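 Relative viability equals treated-well nuclei counts divided by vehicle-well nuclei counts. Counts came from 4× images of lung cancer cell lines grown in 1536-well plates for 5 days after pin-tool dosing on the day after seeding. Dosing used one drug alone or a fixed anchor-drug dose plus five library-drug doses (not always all listed) in √10 steps, and values are medians of duplicate plates.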

Tivantinib + Phenformin = compound: O=C1NC(=O)[C@@H](c2cn3c4c(cccc24)CCC3)[C@@H]1c1c[nH]c2ccccc12 [Tivantinib] + N=C(N)NC(=N)NCCc1ccccc1 [Phenformin] (partner 250 µM)
Method in brief: as §1

Crenolanib = compound: CC1(COc2ccc3c(c2)ncn3-c2ccc3cccc(N4CCC(N)CC4)c3n2)COC1 [Crenolanib]
Method in brief: (§2)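 Following overnight incubation at 37 °C, lung cancer cell lines in 1536-well plates were pinned with five library-drug doses (not always all listed) in √10 steps on vehicle-anchored plates. The cells then spent 5 days without medium change before a combined fix, permeabilisation and Hoechst stain, 4× imaging and MetaXpress nuclear counts. Viability is the treated-to-vehicle ratio of nuclei, taken as the median across plates. Only plates with control CV below 25% and at least one doubling passed.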

Tivantinib = compound: O=C1NC(=O)[C@@H](c2cn3c4c(cccc24)CCC3)[C@@H]1c1c[nH]c2ccccc12 [Tivantinib]
Method in brief: as §2

Cell Line | relative viability (Crenolanib + Navitoclax; first compound 0.01 µM) | relative viability (Crenolanib + Navitoclax; first compound 0.03162 µM) | relative viability (Crenolanib + Navitoclax; first compound 0.1 µM) | relative viability (Crenolanib + Navitoclax; first compound 0.3162 µM) | relative viability (Crenolanib + Navitoclax; first compound 1 µM) | relative viability (Tivantinib + Phenformin; first compound 0.01 µM) | relative viability (Tivantinib + Phenformin; first compound 0.03162 µM) | relative viability (Tivantinib + Phenformin; first compound 0.1 µM) | relative viability (Tivantinib + Phenformin; first compound 0.3162 µM) | relative viability (Crenolanib; 0.01 µM) | relative viability (Crenolanib; 0.03162 µM) | relative viability (Crenolanib; 0.1 µM) | relative viability (Crenolanib; 0.3162 µM) | relative viability (Crenolanib; 1 µM) | relative viability (Tivantinib; 0.01 µM) | relative viability (Tivantinib; 0.03162 µM) | relative viability (Tivantinib; 0.1 µM) | relative viability (Tivantinib; 0.3162 µM)
SW 1573 | 1.11 | 1.17 | 0.867 | 1.03 | 1.23 | 0.419 | 0.357 | 0.392 | 0.263 | 1.01 | 1.01 | 0.955 | 1.01 | 0.986 | 1.02 | 0.866 | 0.981 | 0.958
NCI-H1993 | 0.994 | 0.92 | 0.825 | 0.897 | 0.884 | 0.446 | 0.503 | 0.514 | 0.605 | 0.985 | 0.889 | 0.919 | 1.06 | 0.925 | 1 | 0.897 | 0.927 | 0.721
NCI-H1734 | 0.846 | 0.778 | 0.796 | 0.952 | 0.886 | 0.401 | 0.346 | 0.386 | 0.451 | 0.947 | 1.02 | 0.988 | 1.02 | 0.916 | 0.946 | 0.878 | 1.08 | 1.01
NCI-H1666 | 1.07 | 0.998 | 0.872 | 1.19 | 0.971 | 0.566 | 0.576 | 0.531 | 0.552 | 1.05 | 0.974 | 0.951 | 1.04 | 0.965 | 1.01 | 0.952 | 0.977 | 0.83
NCI-H460 | 1.24 | 1.4 | 0.932 | 1.15 | 1.15 | 0.532 | 0.509 | 0.474 | 0.563 | 1 | 0.998 | 0.975 | 0.995 | 0.956 | 0.986 | 0.971 | 0.98 | 0.999
LCLC-97TM1 | 0.489 | 0.525 | 0.489 | 0.473 | 0.445 | 0.456 | 0.496 | 0.453 | 0.388 | 1.12 | 0.903 | 0.93 | 1.05 | 0.921 | 1.02 | 0.813 | 0.961 | 0.871
LOU-NH91 | 0.853 | 0.702 | 0.645 | 0.641 | 0.737 | 0.689 | 0.715 | 0.702 | 0.615 | 1.02 | 0.939 | 0.929 | 0.891 | 0.906 | 0.932 | 0.946 | 1.02 | 0.747
NCI-H838 | 1.19 | 1.16 | 1.21 | 1.2 | 1.02 | 0.705 | 0.554 | 0.464 | 0.514 | 1.03 | 0.975 | 0.946 | 0.964 | 0.749 | 0.952 | 0.962 | 0.798 | 0.932
NCI-H1437 | 1.1 | 1.11 | 1.15 | 1.18 | 1.11 | 0.3 | 0.278 | 0.275 | 0.351 | 0.983 | 1 | 0.977 | 1.04 | 1.02 | 0.993 | 0.984 | 0.908 | 0.989
NCI-H2087 | 1.02 | 0.9 | 0.867 | 1.06 | 1.12 | 0.446 | 0.456 | 0.473 | 0.472 | 0.938 | 1.04 | 0.88 | 1.05 | 0.967 | 1.11 | 0.936 | 0.95 | 1.06
